Data from ChEMBL document CHEMBL1201862, “PubChem BioAssay data set” (2004).
One block for each compound: values may come before it. Calls of active or inactive are those of the source.

Legend:
[1] = molecular target: ATP-dependent molecular chaperone HSP82 (Candida albicans (strain WO-1) (Yeast), UniProt C4YTQ8); assay: steroid-induced GRE reporter decrease in yeast – S. cerevisiae, luminescence, Hsp90 inhibitor project, dose response (AID 2400); format: functional, cell-based;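 also: beta-galactosidase luminescence from glucocorticoid response element reporter as proxy for Hsp90 function; inhibitor potency where signal loss means Hsp90 inhibition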
[2] = molecular target: Serine/threonine-protein kinase PLK3 (Homo sapiens, UniProt Q9H4B4); format: functional
[3] = molecular target: 5'-AMP-activated protein kinase catalytic subunit alpha-1 (Homo sapiens, UniProt Q13131); format: functional
[4] = molecular target: Tyrosine-protein kinase receptor TYRO3 (Homo sapiens, UniProt Q06418); format: functional;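 also: TYRO3 value obtained as one member of a kinome-wide profiling panel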
Sequence of Tyrosine-protein kinase receptor TYRO3 (Q06418 whole entry): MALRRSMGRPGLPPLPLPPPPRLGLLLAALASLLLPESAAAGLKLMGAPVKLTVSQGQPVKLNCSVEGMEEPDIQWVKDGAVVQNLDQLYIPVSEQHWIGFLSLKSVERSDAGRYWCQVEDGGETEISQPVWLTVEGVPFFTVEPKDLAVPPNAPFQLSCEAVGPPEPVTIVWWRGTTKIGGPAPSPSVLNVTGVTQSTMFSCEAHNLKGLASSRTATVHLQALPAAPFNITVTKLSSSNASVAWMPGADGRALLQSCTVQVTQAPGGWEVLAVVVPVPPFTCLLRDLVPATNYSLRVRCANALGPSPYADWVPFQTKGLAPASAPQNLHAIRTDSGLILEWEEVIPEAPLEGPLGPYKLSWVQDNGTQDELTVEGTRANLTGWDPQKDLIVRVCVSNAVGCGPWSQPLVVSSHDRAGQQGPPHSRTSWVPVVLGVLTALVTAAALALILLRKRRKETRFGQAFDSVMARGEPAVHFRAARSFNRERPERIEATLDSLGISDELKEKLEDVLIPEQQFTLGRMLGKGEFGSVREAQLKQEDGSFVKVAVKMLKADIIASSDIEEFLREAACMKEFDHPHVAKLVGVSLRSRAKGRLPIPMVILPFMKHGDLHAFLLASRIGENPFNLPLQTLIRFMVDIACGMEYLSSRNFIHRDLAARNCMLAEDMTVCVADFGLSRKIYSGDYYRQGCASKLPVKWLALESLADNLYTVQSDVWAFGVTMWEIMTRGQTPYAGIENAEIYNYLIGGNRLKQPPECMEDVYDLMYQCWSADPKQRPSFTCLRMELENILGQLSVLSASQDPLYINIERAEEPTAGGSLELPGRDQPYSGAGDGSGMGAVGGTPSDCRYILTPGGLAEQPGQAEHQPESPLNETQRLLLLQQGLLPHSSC

[5] = molecular target: Serine/threonine-protein kinase 17A (Homo sapiens, UniProt Q9UEE5); format: functional
[6] = molecular target: MAP kinase-activated protein kinase 2 (Homo sapiens, UniProt P49137); format: functional;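 also: measured as one member of a kinome-wide kinase panel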
Sequence of MAP kinase-activated protein kinase 2 (P49137 whole entry): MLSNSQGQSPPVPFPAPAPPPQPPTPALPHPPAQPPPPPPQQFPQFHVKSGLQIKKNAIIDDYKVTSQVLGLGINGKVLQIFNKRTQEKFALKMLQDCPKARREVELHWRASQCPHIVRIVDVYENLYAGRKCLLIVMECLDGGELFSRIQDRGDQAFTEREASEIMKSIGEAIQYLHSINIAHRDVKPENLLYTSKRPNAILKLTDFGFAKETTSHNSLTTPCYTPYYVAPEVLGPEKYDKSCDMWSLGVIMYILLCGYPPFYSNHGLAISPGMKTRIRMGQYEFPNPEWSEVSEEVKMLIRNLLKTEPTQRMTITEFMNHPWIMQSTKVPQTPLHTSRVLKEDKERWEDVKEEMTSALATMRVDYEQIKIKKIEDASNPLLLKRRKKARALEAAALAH

[7] = molecular target: Casein kinase II subunit alpha (Homo sapiens, UniProt P68400); format: functional
[8] = molecular target: Mitogen-activated protein kinase 9 (Homo sapiens, UniProt P45984); format: functional;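 also: value from a kinome panel profiling assay, MAPK9 panel entry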
[9] = molecular target: Serine/threonine-protein kinase N2 (Homo sapiens, UniProt Q16513); format: functional
Sequence of Serine/threonine-protein kinase N2 (Q16513 whole entry): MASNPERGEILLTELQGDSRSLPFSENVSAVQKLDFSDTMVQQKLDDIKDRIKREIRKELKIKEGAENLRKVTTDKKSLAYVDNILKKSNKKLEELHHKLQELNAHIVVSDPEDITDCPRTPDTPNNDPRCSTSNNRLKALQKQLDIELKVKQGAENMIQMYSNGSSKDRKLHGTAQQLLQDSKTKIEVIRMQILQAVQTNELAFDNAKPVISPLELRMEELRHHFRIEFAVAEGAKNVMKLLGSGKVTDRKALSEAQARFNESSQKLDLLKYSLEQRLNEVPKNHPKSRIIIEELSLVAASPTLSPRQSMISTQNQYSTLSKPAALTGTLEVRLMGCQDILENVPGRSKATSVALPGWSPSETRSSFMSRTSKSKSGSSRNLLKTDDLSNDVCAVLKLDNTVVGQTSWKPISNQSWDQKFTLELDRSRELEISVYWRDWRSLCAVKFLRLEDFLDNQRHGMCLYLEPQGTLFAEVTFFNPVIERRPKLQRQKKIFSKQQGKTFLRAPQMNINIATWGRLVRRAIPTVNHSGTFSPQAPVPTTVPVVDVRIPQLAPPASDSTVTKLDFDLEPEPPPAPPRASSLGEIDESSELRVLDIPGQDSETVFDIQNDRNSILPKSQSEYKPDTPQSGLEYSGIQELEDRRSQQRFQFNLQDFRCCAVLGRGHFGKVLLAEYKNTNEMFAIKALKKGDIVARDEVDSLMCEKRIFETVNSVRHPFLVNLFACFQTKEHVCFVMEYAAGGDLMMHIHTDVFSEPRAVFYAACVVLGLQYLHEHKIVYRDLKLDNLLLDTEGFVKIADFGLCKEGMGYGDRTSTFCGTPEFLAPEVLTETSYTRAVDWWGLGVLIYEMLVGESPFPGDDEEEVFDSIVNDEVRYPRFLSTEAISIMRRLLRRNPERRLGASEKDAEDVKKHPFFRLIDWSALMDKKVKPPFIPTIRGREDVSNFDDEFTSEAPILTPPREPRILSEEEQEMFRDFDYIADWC

[10] = molecular target: Serine/threonine-protein kinase TAO1 (Homo sapiens, UniProt Q7L7X3); format: functional
[11] = molecular target: Serine/threonine-protein kinase pim-3 (Homo sapiens, UniProt Q86V86); format: functional;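 also: value obtained as one member of a broad kinase panel profiling effort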
[12] = molecular target: Protein kinase C gamma type (Homo sapiens, UniProt P05129); format: functional
[13] = molecular target: Proto-oncogene tyrosine-protein kinase Src (Homo sapiens, UniProt P12931); format: functional;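 also: SRC entry within a kinome-wide kinase profiling panel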
[14] = molecular target: Tyrosine-protein kinase ABL1 (Homo sapiens, UniProt P00519); format: functional
[15] = molecular target: Mitogen-activated protein kinase 1 (Homo sapiens, UniProt P28482); format: functional
[16] = molecular target: Dual specificity tyrosine-phosphorylation-regulated kinase 4 (Homo sapiens, UniProt Q9NR20); format: functional
Sequence of Dual specificity tyrosine-phosphorylation-regulated kinase 4 (Q9NR20 whole entry): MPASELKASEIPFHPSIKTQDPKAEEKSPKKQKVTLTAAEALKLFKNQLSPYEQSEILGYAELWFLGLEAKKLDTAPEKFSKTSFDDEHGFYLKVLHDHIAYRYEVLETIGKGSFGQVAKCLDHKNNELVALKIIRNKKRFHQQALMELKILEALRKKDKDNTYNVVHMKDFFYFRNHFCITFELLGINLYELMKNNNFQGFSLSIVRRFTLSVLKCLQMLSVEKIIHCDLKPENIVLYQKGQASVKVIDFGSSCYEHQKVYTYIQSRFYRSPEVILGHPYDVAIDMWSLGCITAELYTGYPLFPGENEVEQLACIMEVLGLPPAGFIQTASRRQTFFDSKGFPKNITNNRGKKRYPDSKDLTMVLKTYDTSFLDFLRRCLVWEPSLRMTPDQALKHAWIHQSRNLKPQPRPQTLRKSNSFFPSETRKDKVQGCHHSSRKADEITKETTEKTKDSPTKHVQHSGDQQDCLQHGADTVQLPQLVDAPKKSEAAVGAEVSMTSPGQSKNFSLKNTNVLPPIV

[17] = molecular target: cAMP-dependent protein kinase catalytic subunit PRKX (Homo sapiens, UniProt P51817); format: functional
[18] = molecular target: Mitogen-activated protein kinase kinase kinase kinase 5 (Homo sapiens, UniProt Q9Y4K4); format: functional;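 also: measured as one member of a kinome-spanning kinase panel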
[19] = molecular target: Homeodomain-interacting protein kinase 4 (Homo sapiens, UniProt Q8NE63); format: functional
[20] = molecular target: 3-phosphoinositide-dependent protein kinase 1 (Homo sapiens, UniProt O15530); format: functional;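 also: value comes from the Navigating the Kinome panel, PDPK1 member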
[21] = molecular target: Serine/threonine-protein kinase DCLK1 (Homo sapiens, UniProt O15075); format: functional;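 also: affinity for DCLK1 (listed as DCAMKL1) measured as one member of a kinome-wide kinase profiling panel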
Sequence of Serine/threonine-protein kinase DCLK1 (O15075 whole entry): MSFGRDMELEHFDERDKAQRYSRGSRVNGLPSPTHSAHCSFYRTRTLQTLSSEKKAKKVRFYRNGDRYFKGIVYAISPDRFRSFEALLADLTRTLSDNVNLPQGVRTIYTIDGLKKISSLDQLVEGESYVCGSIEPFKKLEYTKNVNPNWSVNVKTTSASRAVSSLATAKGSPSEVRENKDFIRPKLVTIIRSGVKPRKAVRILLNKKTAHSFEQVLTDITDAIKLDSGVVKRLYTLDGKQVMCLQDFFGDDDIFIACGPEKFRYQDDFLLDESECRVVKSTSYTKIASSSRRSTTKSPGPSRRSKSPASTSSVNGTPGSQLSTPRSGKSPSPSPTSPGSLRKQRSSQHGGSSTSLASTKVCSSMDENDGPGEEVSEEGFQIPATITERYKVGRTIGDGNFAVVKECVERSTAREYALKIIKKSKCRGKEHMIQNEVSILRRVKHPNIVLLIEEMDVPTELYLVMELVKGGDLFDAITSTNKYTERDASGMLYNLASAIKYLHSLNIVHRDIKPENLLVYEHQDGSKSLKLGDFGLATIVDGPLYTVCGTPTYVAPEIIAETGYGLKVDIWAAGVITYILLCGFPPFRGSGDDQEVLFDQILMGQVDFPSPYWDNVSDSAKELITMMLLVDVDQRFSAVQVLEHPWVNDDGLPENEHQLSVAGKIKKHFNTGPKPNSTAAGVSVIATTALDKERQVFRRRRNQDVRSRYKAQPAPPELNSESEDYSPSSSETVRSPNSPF

[22] = molecular target: Serine/threonine-protein kinase Nek2 (Homo sapiens, UniProt P51955); format: functional
[23] = molecular target: STE20-like serine/threonine-protein kinase (Homo sapiens, UniProt Q9H2G2); format: functional
[24] = molecular target: Glycogen synthase kinase-3 beta (Homo sapiens, UniProt P49841); format: functional;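 also: value comes from a broad kinome profiling panel, with GSK3B as the panel member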
Sequence of Glycogen synthase kinase-3 beta (P49841 whole entry): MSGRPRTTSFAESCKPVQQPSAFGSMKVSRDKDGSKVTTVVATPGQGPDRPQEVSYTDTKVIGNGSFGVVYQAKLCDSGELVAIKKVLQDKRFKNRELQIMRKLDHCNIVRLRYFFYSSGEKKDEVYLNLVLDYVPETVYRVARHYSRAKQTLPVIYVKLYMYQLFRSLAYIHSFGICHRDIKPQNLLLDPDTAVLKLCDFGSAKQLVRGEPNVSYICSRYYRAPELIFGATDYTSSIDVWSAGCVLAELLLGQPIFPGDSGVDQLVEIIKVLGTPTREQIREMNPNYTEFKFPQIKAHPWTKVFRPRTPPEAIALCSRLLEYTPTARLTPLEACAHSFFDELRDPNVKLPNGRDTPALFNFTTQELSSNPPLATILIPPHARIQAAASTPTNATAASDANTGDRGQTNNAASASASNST

[25] = molecular target: Serine/threonine-protein kinase BRSK1 (Homo sapiens, UniProt Q8TDC3); format: functional;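 also: measured within a kinome-wide kinase panel, with the target listed as KIAA1811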
Sequence of Serine/threonine-protein kinase BRSK1 (Q8TDC3 whole entry): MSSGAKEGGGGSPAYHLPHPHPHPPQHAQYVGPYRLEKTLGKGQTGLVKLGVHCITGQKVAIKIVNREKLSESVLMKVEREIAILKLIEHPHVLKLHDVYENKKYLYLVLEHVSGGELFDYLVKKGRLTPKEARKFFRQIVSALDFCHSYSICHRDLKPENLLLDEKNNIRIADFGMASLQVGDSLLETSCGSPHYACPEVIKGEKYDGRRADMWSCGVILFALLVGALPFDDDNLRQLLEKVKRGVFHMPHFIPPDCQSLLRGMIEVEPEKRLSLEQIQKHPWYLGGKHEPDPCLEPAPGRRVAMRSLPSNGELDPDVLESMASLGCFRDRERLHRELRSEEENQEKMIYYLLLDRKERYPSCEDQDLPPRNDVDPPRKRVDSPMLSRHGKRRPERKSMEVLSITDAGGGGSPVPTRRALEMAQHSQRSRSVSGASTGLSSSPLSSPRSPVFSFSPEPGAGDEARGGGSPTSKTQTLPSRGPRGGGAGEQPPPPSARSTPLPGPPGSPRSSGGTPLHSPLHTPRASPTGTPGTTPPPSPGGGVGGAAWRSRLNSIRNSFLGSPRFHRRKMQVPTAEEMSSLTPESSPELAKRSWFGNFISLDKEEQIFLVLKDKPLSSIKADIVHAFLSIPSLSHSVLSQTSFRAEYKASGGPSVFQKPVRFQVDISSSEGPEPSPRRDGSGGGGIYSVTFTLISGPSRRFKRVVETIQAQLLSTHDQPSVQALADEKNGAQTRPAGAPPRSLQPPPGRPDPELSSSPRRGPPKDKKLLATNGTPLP

SMILES: COc1ccc(-c2nnc(NC(=O)c3ccc(F)cc3)o2)cc1
- EC50 [1]: > 150 µM (inactive)

- Ki [2]: > 7.94 µM (inactive)
- Ki [3]: > 1.58 µM (inactive)
- Ki [4]: > 2 µM (inactive)
- Ki [5]: 0.158 µM (active)
- Ki [6]: > 7.94 µM (inactive)
- Ki [7]: > 6.31 µM (inactive)
- Ki [8]: > 3.98 µM (inactive)
- Ki [9]: 0.0251 µM (active)
- Ki [10]: > 10 µM (inactive)
- Ki [11]: 1.58 µM (active)
- Ki [12]: 0.251 µM (active)
- Ki [13]: > 2 µM (inactive)
- Ki [14]: > 0.631 µM (inactive)
- Ki [15]: > 7.94 µM (inactive)
- Ki [16]: > 7.94 µM (inactive)
- Ki [17]: 0.0501 µM (active)
- Ki [18]: 1.58 µM (active)
- Ki [19]: 5.01 µM (active)
- Ki [20]: > 3.98 µM (inactive)
- Ki [21]: > 10 µM (inactive)
- Ki [22]: > 10 µM (inactive)
- Ki [23]: 1.58 µM (active)
- Ki [24]: 0.0631 µM (active)
- Ki [25]: > 10 µM (inactive)
SMILES: CCn1c(-c2nonc2N)nc2cnc(Oc3cccc(NC(=O)c4ccc(OCCN5CCOCC5)cc4)c3)cc21 [GSK-269962A]
